# Test results from patent US12527776B2, “Treatment of ciliopathies using inhibitors of glucosylceramide synthase (GCS)” (GENZYME CORPORATION, priority 2019, dated 2026).
# Tests used:
# [1] = test system: Bbs2−/− immortalized kidney epithelial cells; assay: Cell culture and primary cilium staining (cilia length, GSL localization); format: cell-based, mouse; conditions: serum free, compound for 6-24 hours
# Method: Cell Culture and Primary Cilium Staining
# Wild type and Bbs2^−/− kidney epithelium cell lines were established and maintained as described previously (See Natoli T et al., Nat Med, 16:788-792 (2010); and Humes H D. et al., Am J Kidney Dis, 39:1078-1087(2002)). Cells were cultured on collagen I coated glass slides in DMEM containing 1% penicillin/streptomycin, 10% FBS. To determine the effect of compounds on cilia and lipid localization, cells were cultured in serum free media for 24 hours followed by the addition of Compound 1 for 6-24 hours. Cells were then fixed with 4% paraformaldehyde followed by immunofluorescence with anti-GM3 (Creative Biolabs), anti-ceramide (Sigma Aldrich), anti-GM1 (Invitrogen), and anti-acetylated tubulin (Cell Signaling) antibodies. Cilia length was quantified using Metamorph software.
# [2] = test system: Bbs2−/− mice; assay: Metabolic parameters in Bbs2−/− mice; format: in vivo, mouse
# Description: (§1) A Bbs2^−/− mouse model has been described by Nishimura D Y et al. (Proc Natl Acad Sci, 101:16588-16593 (2004)) with exons 5-14 of Bbs2 replaced with a neomycin cassette. Mice were backcrossed into 129/SvJ background. Treated Bbs2^−/− mice were fed ad libitum with 0.033% w/w of Compound 1 incorporated in feed from the age of 1 month to 6 months. Bbs2^−/− and Wt control animals were fed regular 5053 chow (LabDiet). To establish metabolic disease, Bbs2^−/− mice were left untreated until four-months of age, and then treated with Compound 1 incorporated into feed for the fifth and sixth months.
# Body composition was analyzed using an EchoMRI™. Measurements of the fat mass and of lean mass were recorded and percent of body fat was calculated. Body composition was calculated using the following formula: fat mass/(fat mass+lean mass).
# Food weights were recorded from the food hopper and bedding. Average food consumption per animal per day was estimated using the following formula: [(food weight at start of period−(food weight at end of period in hopper[…])]/#animals in the cage/#days of observation.
# Blood was collected during necropsy and incubated for 15 minutes at room temperature to allow clot formation. Clot was removed by centrifugation at 15,000 rpm for 5 minutes to collect serum. Leptin ELISA kit (R&D Systems) was used to measure leptin concentrations according to the manufacturer's instructions.
# Total RNA was isolated from homogenized adipose tissue dissected from 6-month old mice using TRizol and chloroform extraction followed by the RNAeasy Mini Kit Purification (Qiagen), quantified using the NanoDrop 2300 system, and was reverse transcribed using High Capacity cDNA Reverse Transcription Kit (Applied Biosystems). Primers for Fas and Srebf1 were purchased from Applied Biosystems. Quantitative PCR was performed in duplicate for each sample on an Applied Biosystems RT-PCR machine using Taqman Universal Master Mix (Thermo Fisher) according to the manufacturer's instructions. Relative amounts of mRNA were determined using the Comparative CT Method for quantification and were normalized to GAPDH mRNA levels.
# Automated digital image analysis was performed on whole adipose tissues using Visiopharm Image Analysis software (DK-2970 Hoersholm, Denmark, version 6.9.1). Two custom-written applications were created and run consecutively for each digital image. The first application detected adipose tissue using threshold classification and outlined the area as a Region of Interest (ROI). The second application used threshold to classify the tissue inside the ROI into three categories: Cytoplasm (cytoplasmic membrane), Adipose (Adipocyte), and Other (unwanted artifacts, large vessels, other tissue). Post processing steps included enclosing adipose with cytoplasm and selecting adequate adipose cells for counting by removing any adipose with a form factor less than 0.5.
# Paraffin-embedded samples of brain tissue from Wt and Bbs2^−/− mice were cut and 4 micrometer sections were boiled in Antigen Retrieval solution (DAKO) in a pressure cooker to unmask antigens. Sections were blocked for 1 hour with 3% BSA followed by incubation with primary antibodies to adenylate cyclase III (Santa Cruz Biotechnology) diluted in 3% BSA overnight at 4° C. Alexa Fluor 488 secondary antibody (Invitrogen) was used at the dilution 1:1000. Images were acquired on a Leica DM5500B microscope fitted with ×40 and ×60 objectives using Leica Application Suite Advance Fluorescence software (Leica Microsystems).
# [3] = test system: Bbs2−/− mice; assay: Liver abnormalities in Bbs2−/− mice (liver weight, ALT, triglycerides); format: in vivo, mouse; conditions: feed from 1 to 6 months of age
# Description: as §1
# Triglyceride and ALT levels were measured using a VetACE™ analyzer (Alfa Wasserman, West Coldwell, NJ).
# [4] = test system: Bbs2−/− mice; assay: Olfaction (buried treat test) and main olfactory epithelium immunofluorescence in Bbs2−/− mice; format: in vivo, mouse; conditions: feed from 1 to 6 months of age
# Description: as §1
# Animal olfaction was tested using a protocol adapted from Yang M. et al. (Curr Protoc Neurosci, DOI:10.1002/0471142301.ns0824s48 (2009)). Before testing, animals were acclimatised for three days and then fasted for 18 hours in cage with Alpha Dri bedding. Treat (Bioserv Supreme Mini-Treats, Chocolate flavor) was buried 1 cm deep in a clean cage with 3 cm deep bedding. Animals were placed in cage and time was recorded when treat was found and bitten into.
# Paraffin-embedded samples of nasal cavities from Wt and Bbs2^−/− mice were prepared and analysed as described supra. The primary antibodies used were acetylated tubulin (Cell Signaling Technology), cytokeratin 14 (Protein Tech), SRY-Box 2 (Cell Signaling Technology), doublecortin (Cell Signaling Technology), and olfactory marker protein (Wako).
# [5] = 0.033% w/w in feed from 1 to 6 months of age
# [6] = established disease, 0.033% w/w in feed starting at 4 months of age, after one month
# [7] = white adipose tissue, feed from 1 to 6 months of age
compound,measurement,setting,value
"CC(C)(NC(=O)OC1CN2CCC1CC2)c1cccc(-c2ccc(F)cc2)c1 (centres unmarked) [Compound 1, 1-azabicyclo[2.2.2]oct-3-yl [2-(4′-fluorobiphenyl-3-yl)propan-2-yl]carbamate]",GM3 localization,[1],restores GM3 localization similar to what is observed in Wt cells
same,cilia length,[1],elongates cilia
same,body fat,[2]; [5],significant decrease
same,body weight,[2]; [5],significant decrease
same,food consumption,[2]; [5],significant decrease
same,serum leptin,[2]; [5],reduced to wild type levels
same,cilia in the hypothalamus,[2]; Compound in feed,preserved the hypothalamic cilia
same,body fat,[2]; [6],decreased
same,body weight,[2]; [6],decreased
same,serum leptin,[2]; [6],decreased
same,adipocyte size,"[2]; established disease, after the two-month treatment",decrease of adipocyte size
same,adipocyte size,[2]; [7],reduction of adipocyte size
same,expression of pro-adipogenic gene Srebf1,[2]; [7],corrected upon treatment to the levels observed in Wt control
same,liver weight,[3],normalized
same,serum ALT,[3],normalized
same,serum triglycerides,[3],normalized
same,adenylate cyclase III (ACIII) in the MOE,[4],increase in ACIII
same,cilia in the MOE (acetylated tubulin),[4],preservation/restoration of the cilia in the MOE
same,differentiation in MOE (immature vs mature neurons),[4],correction of this phenotype to resemble that of wild type animals
same,olfaction defect (time to find a buried treat),[4],restored
